Measurements: US20090118361A1, “SUPPRESSOR OF EXPRESSION OF MCP-1, AND AMELIORATING AGENT FOR INFLAMMATORY DISEASE, PHARMACEUTICAL, SUPPLEMENT, FOOD, BEVERAGE OR FOOD ADDITIVE USING THE SUPPRESSOR” (ARKRAY, INC., priority 2006, published 2009)

Tests used:
[1] = tested on: MCP-1; experiment: Suppression of MCP-1 mRNA expression in differentiated 3T3-L1 adipocytes (Light Cycler quantitative determination, ratio to 36B4); format: cell-based, mouse; settings: 3T3-L1, eight days after start of differentiation induction, MCP-1/36B4 ratio relative to non-treated control = 100%, mean ± standard error
Method: (§1) First, two types of culture media indicated below, i.e. a differentiation induction culture medium and a differentiation enhancing culture medium, were prepared.
(§2) (Composition: 0.25 μM DEX, 0.5 mM MIX, 10 μg/mL insulin/10% FBS-containing DMEM)
(§3) First, 55 mL of FBS (fetal bovine serum (manufactured by GIBCO)) was added to 500 mL of DMEM (manufactured by SIGMA), and thereby 10% FBS-containing DMEM was prepared. Thereafter, 138.75 μL of 1 mM DEX (dexamethasone)-containing DMSO (manufactured by Nacalai Tesque, Inc.) and 555 μL of 10 mg/mL insulin-containing PBS (manufactured by SIGMA) were added thereto. The insulin-containing PBS was prepared as follows. That is, 1N HCl was added to PBS beforehand, so that PBS acidified to a degree that allowed insulin to dissolve therein, and thereafter insulin was dissolved therein. MIX (3-Isobutyl-1-methylxanthine) (manufactured by Nacalai Tesque, Inc.) was added to a required amount of the culture medium immediately before use so as to be 0.5 mM. Thus a differentiation induction culture medium was prepared. Since MIX was very difficult to dissolve, it first was dissolved in a small amount of 99.5% ethanol. which was then added to 10% FBS-containing DMEM. In this case, the final concentration of 99.5% ethanol in the differentiation induction culture medium was adjusted so as not to exceed 1%.
(§4) (Composition: 5 ug/mL insulin/10% FBS-containing DMEM/auraptene)
First, 277.5 μL of the aforementioned 10 mg/mL insulin-containing PBS was added to 555 ml, of 10% FBS-containing DMEM. Furthermore, auraptene (AUR) with various concentrations was added to this mixture and thereby differentiation enhancing culture media were prepared. […]
Subsequently, frozen cultured preadipocyte 3T3-L1 was thawed and was plated on the culture medium placed in a 100-mm dish. […] Subsequently, using a Light/Cycler®, the levels of mRNA expression of MCP-1 and 36B4, […], were measured. […]

[2] = tested on: MCP-1; experiment: MCP-1 protein secretion into conditioned medium of differentiated 3T3-L1 adipocytes (ELISA); format: cell-based, mouse; settings: 3T3-L1 conditioned medium, eight days after start of differentiation induction, relative to non-treated control = 100, mean ± standard error
Method: as §1, §2, §3, §4
First, 277.5 μL of the aforementioned 10 mg/mL insulin-containing PBS was added to 555 ml, of 10% FBS-containing DMEM. Furthermore, auraptene (AUR) with various concentrations was added to this mixture and thereby differentiation enhancing culture media were prepared. In this case, a cultured cell obtained by using auraptene-free differentiation enhancing culture medium containing DMSO added instead of auraptene was employed as a non-treated control (control).
Subsequently, frozen cultured preadipocyte 3T3-L1 was thawed and was plated on the culture medium placed in a 100-mm dish. This was cultured until 3T3-L1 reached about 80% confluent. One dish of 3T3-L1 that had reached about 80% confluent was subcultured on a 6-well plate. Subsequently, after 3T3-L1 subcultured on the 6-well plate further was cultured until it reached 100% confluent, the culture medium was replaced by a differentiation induction culture medium and thereby differentiation was induced. Subsequently, 48 hours after replacement by a differentiation induction culture medium, the culture medium was replaced by a differentiation enhancing culture medium. Thereafter, replacement of the differentiation enhancing culture medium was carried out every three days. Using Sepasol RNA I Super (trade name, manufactured by Nacalai Tesque, Inc.), mRNA was extracted from the cultured cells eight days after the start of differentiation induction. Subsequently, using a Light/Cycler®, the levels of mRNA expression of MCP-1 and 36B4, […], were measured. The measurement of the levels of mRNA expression is described below in detail.
Furthermore, the culture medium obtained eight days after the start of differentiation induction was collected in an amount of 1 mL from each well. Using an ELISA kit (manufactured by BD Bioscience, trade name: BD OptEIA Set Mouse MCP-1), the amount of MCP-1 (protein abundance) in the conditioned medium was measured according to the manual of the kit.
The relative ratios calculated, with the measured value of the non-treated control (control) with respect to the measured value of the secretion amount of MCP-1 by ELISA being taken as 100, are indicated in Table 2 below and in the graph shown in FIG. 2. The auraptene concentrations indicated in Table 2 below and FIG. 2 are final concentrations in the differentiation enhancing culture media. In FIG. 2, AUR denotes auraptene, and Ctrl indicates the non-treated control (control). […]

## CC(C)=CCC/C(C)=C/COc1ccc2ccc(=O)oc2c1 [Example 1, auraptene]
[1]; auraptene 5 μM in differentiation enhancing medium
  mRNA concentration of MCP-1: 99.8 ± 8.0%
[1]; auraptene 20 μM in differentiation enhancing medium
  mRNA concentration of MCP-1: 62.3 ± 5.8%
[1]; auraptene 50 μM in differentiation enhancing medium
  mRNA concentration of MCP-1: 28.3 ± 2.9%
[2]; auraptene 1 μM
  Protein secretion amount of MCP-1: 94.6 ± 4.9%
[2]; auraptene 5 μM
  Protein secretion amount of MCP-1: 98.6 ± 2.5%
[2]; auraptene 10 μM
  Protein secretion amount of MCP-1: 92.1 ± 4.6%
[2]; auraptene 20 μM
  Protein secretion amount of MCP-1: 72.3 ± 2.2%
[2]; auraptene 30 μM
  Protein secretion amount of MCP-1: 63.9 ± 2.5%
[2]; auraptene 50 μM
  Protein secretion amount of MCP-1: 48.5 ± 2.1%
